#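 Results reflect a 48-hour exposure of cells in 96-well plates to compound at five concentrations. At the GI50, growth is halved.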 The source made the active and inactive calls. No stated cut-off is given here; in the data, active = GI50 up to about 1.1 µM and inactive = higher.
# Assays:
# Assay in all cases: growth of human tumour cells (NCI), 48 h
# 786-0 = test system: 786-0
# U-251 = test system: U-251
# HL-60 = test system: HL-60
# RPMI-8226 = test system: RPMI-8226
# NCI-H23 = test system: NCI-H23
# SK-MEL-5 = test system: SK-MEL-5
# OVCAR-8 = test system: OVCAR-8
# UACC-62 = test system: UACC-62
# HCT-15 = test system: HCT-15
# SK-OV-3 = test system: SK-OV-3
# NCI-H460 = test system: NCI-H460
# A549 = test system: A549
# MOLT-4 = test system: MOLT-4
# NCI-H226 = test system: NCI-H226
# UACC-257 = test system: UACC-257
# HCC 2998 = test system: HCC 2998
# SNB-75 = test system: SNB-75
# CAKI-1 = test system: CAKI-1
SMILES,GI50 (786-0),GI50 (U-251),GI50 (HL-60),GI50 (RPMI-8226),GI50 (NCI-H23),GI50 (SK-MEL-5),GI50 (OVCAR-8),GI50 (UACC-62),GI50 (HCT-15) [µM],GI50 (SK-OV-3),GI50 (NCI-H460),GI50 (A549),GI50 (MOLT-4),GI50 (NCI-H226),GI50 (UACC-257),GI50 (HCC 2998),GI50 (SNB-75),GI50 (CAKI-1)
Cn1nc(-c2ccccc2)c(C(=O)/C=C/c2ccccc2)c(N2CCOCC2)c1=O,14.2 µM (inactive),15.4 µM (inactive),12.8 µM (inactive),14.6 µM (inactive),16.4 µM (inactive),16 µM (inactive),28.4 µM (inactive),19.8 µM (inactive),16.7,27.6 µM (inactive),22.9 µM (inactive),20.3 µM (inactive),13.2 µM (inactive),,,,,
CCN(CC)CCCC(C)NC(=O)c1ccc2c(c1)C(=O)c1ccccc1C2=O (centres undefined),18.6 µM (inactive),20.1 µM (inactive),13.5 µM (inactive),18.7 µM (inactive),15.4 µM (inactive),14.5 µM (inactive),22.3 µM (inactive),20.5 µM (inactive),17.9,40.1 µM (inactive),16.4 µM (inactive),21.7 µM (inactive),16.6 µM (inactive),22.3 µM (inactive),11.9 µM (inactive),18.1 µM (inactive),48.2 µM (inactive),25.9 µM (inactive)
CC(=O)Nc1ccc(C2CC(c3ccc([N+](=O)[O-])cc3)=Nc3ccccc3S2)cc1 (centres undefined),17.4 µM (inactive),15.2 µM (inactive),21.3 µM (inactive),,> 10 µM (inactive),> 10 µM (inactive),16.6 µM (inactive),15.2 µM (inactive),17.1,40.6 µM (inactive),17.3 µM (inactive),20.6 µM (inactive),11.8 µM (inactive),26.9 µM (inactive),15.7 µM (inactive),,12.8 µM (inactive),24 µM (inactive)
Cc1ccccc1N1C(=O)/C(=C/c2ccc(N(CCC#N)CCC#N)cc2)N=C1c1cc([N+](=O)[O-])ccc1Cl,84.5 µM (inactive),36 µM (inactive),35 µM (inactive),21 µM (inactive),> 100 µM (inactive),38.5 µM (inactive),,22.5 µM (inactive),> 100,> 100 µM (inactive),> 100 µM (inactive),,25.5 µM (inactive),> 100 µM (inactive),> 100 µM (inactive),> 100 µM (inactive),> 100 µM (inactive),> 100 µM (inactive)
Cc1ccc2[nH]c(=O)c(C(C#N)c3ccccc3)nc2c1 (centres undefined),41.8 µM (inactive),24.3 µM (inactive),,15.6 µM (inactive),60.8 µM (inactive),19 µM (inactive),,26.5 µM (inactive),31.4,50.7 µM (inactive),72.3 µM (inactive),35.5 µM (inactive),20.9 µM (inactive),30.1 µM (inactive),59.8 µM (inactive),28.2 µM (inactive),30.5 µM (inactive),34.6 µM (inactive)
O=C1C2C3C=C4c5ccccc5N(c5ccccc5)C4(C2C(=O)N1c1ccc([N+](=O)[O-])cc1)[C@H]1C(=O)N(c2ccc([N+](=O)[O-])cc2)C(=O)[C@@H]31 (some centres undefined),> 100 µM (inactive),> 100 µM (inactive),> 100 µM (inactive),> 100 µM (inactive),> 100 µM (inactive),> 100 µM (inactive),> 100 µM (inactive),> 100 µM (inactive),> 100,> 100 µM (inactive),> 100 µM (inactive),> 100 µM (inactive),> 100 µM (inactive),> 100 µM (inactive),> 100 µM (inactive),> 100 µM (inactive),11.1 µM (inactive),> 100 µM (inactive)
CCOC(=O)NC(=O)c1cn(CCN2CCN(C(=O)NCCCCCCNC(=O)N3CCN(CCn4cc(C(=O)NC(=O)OCC)c(=O)n(CCN(CC)CC)c4=O)CC3)CC2)c(=O)n(CCC(CC)CC)c1=O,> 100 µM (inactive),> 100 µM (inactive),> 100 µM (inactive),> 100 µM (inactive),> 100 µM (inactive),> 100 µM (inactive),> 100 µM (inactive),> 100 µM (inactive),> 100,> 100 µM (inactive),> 100 µM (inactive),> 100 µM (inactive),,,> 100 µM (inactive),> 100 µM (inactive),> 100 µM (inactive),
CC(=O)c1cccc(NC(=O)C(=O)C(C2OC(=O)c3ccccc32)[N+](=O)[O-])c1 (centres undefined),> 100 µM (inactive),> 100 µM (inactive),> 100 µM (inactive),> 100 µM (inactive),> 100 µM (inactive),> 100 µM (inactive),,> 100 µM (inactive),> 100,> 100 µM (inactive),> 100 µM (inactive),> 100 µM (inactive),> 100 µM (inactive),> 100 µM (inactive),> 100 µM (inactive),> 100 µM (inactive),> 100 µM (inactive),> 100 µM (inactive)
COC(=O)C1(C(=O)OC)CC2c3c(c4ccccc4n3C)CC(C1=O)N2Cc1ccccc1 (centres undefined),> 100 µM (inactive),> 100 µM (inactive),96.8 µM (inactive),61.1 µM (inactive),> 100 µM (inactive),> 100 µM (inactive),> 100 µM (inactive),89.9 µM (inactive),> 100,> 100 µM (inactive),> 100 µM (inactive),> 100 µM (inactive),> 100 µM (inactive),> 100 µM (inactive),> 100 µM (inactive),> 100 µM (inactive),15.4 µM (inactive),> 100 µM (inactive)
O=C(CSc1nnc(-c2ccc(/N=C\c3ccc(Cl)cc3)cc2)o1)Nc1cccc(Cl)c1,> 100 µM (inactive),> 100 µM (inactive),> 100 µM (inactive),70 µM (inactive),> 100 µM (inactive),> 100 µM (inactive),> 100 µM (inactive),> 100 µM (inactive),> 100,> 100 µM (inactive),> 100 µM (inactive),> 100 µM (inactive),> 100 µM (inactive),> 100 µM (inactive),> 100 µM (inactive),,> 100 µM (inactive),
OC1c2ccccc2C2C(O)c3ccccc3C12 (centres undefined),> 100 µM (inactive),> 100 µM (inactive),> 100 µM (inactive),> 100 µM (inactive),> 100 µM (inactive),> 100 µM (inactive),> 100 µM (inactive),> 100 µM (inactive),> 100,> 100 µM (inactive),> 100 µM (inactive),> 100 µM (inactive),> 100 µM (inactive),,> 100 µM (inactive),> 100 µM (inactive),89.5 µM (inactive),> 100 µM (inactive)
Cc1[nH]c2ccccc2c1C1Cc2ccccc2N1C(=O)/C=C/C(=O)O (centres undefined),> 100 µM (inactive),> 100 µM (inactive),> 100 µM (inactive),,> 100 µM (inactive),> 100 µM (inactive),> 100 µM (inactive),> 100 µM (inactive),16.1,> 100 µM (inactive),20 µM (inactive),> 100 µM (inactive),> 100 µM (inactive),> 100 µM (inactive),> 100 µM (inactive),> 100 µM (inactive),> 100 µM (inactive),> 100 µM (inactive)
O=[N+]([O-])c1cc(Cl)ccc1OCc1ccccc1,59 µM (inactive),42.2 µM (inactive),28.4 µM (inactive),67 µM (inactive),32.1 µM (inactive),27.3 µM (inactive),> 100 µM (inactive),> 100 µM (inactive),67,> 100 µM (inactive),55.8 µM (inactive),26.2 µM (inactive),27.9 µM (inactive),,45.3 µM (inactive),> 100 µM (inactive),20.6 µM (inactive),
S=C(Nc1ccccc1)N(/N=C/C=C/c1ccccc1)c1nnc(-c2ccccc2)c(-c2ccccc2)n1,> 100 µM (inactive),> 100 µM (inactive),22.4 µM (inactive),26.1 µM (inactive),19.6 µM (inactive),30.8 µM (inactive),> 100 µM (inactive),52.4 µM (inactive),82.2,> 100 µM (inactive),67.5 µM (inactive),38.6 µM (inactive),32.3 µM (inactive),24.3 µM (inactive),38.9 µM (inactive),76.7 µM (inactive),> 100 µM (inactive),50.7 µM (inactive)
Cc1ccc(NC(=O)CC(=O)n2nc(C)c(/N=N/c3ccccc3C(=O)O)c2C)cc1,> 100 µM (inactive),> 100 µM (inactive),> 100 µM (inactive),> 100 µM (inactive),> 100 µM (inactive),> 100 µM (inactive),> 100 µM (inactive),> 100 µM (inactive),> 100,> 100 µM (inactive),> 100 µM (inactive),> 100 µM (inactive),> 100 µM (inactive),,> 100 µM (inactive),> 100 µM (inactive),89.1 µM (inactive),> 100 µM (inactive)
CCC1(N=[N+]=[N-])C(=O)c2ccccc2N(c2ccccc2)C1=O (centres undefined),> 100 µM (inactive),> 100 µM (inactive),> 100 µM (inactive),,> 100 µM (inactive),> 100 µM (inactive),> 100 µM (inactive),> 100 µM (inactive),> 100,> 100 µM (inactive),> 100 µM (inactive),> 100 µM (inactive),> 100 µM (inactive),,> 100 µM (inactive),> 100 µM (inactive),> 100 µM (inactive),> 100 µM (inactive)
